“Also recorded” adds a separate entry of the source.
Assays:
[1] = system: healthy controls (WT) fibroblasts; experiment: Nucleotide sugar analysis (UPLC-PDA), healthy controls; format: cell-based, human
Procedure: Levels of nucleotides and sugar-nucleotides were determined. Fibroblast cell pellets (5×10^6 cells per sample) were lysed and extracted in 0.37 ml ice-cold 0.5 M perchloric acid with sonication on ice. Samples were neutralized with 86 μl ice-cold neutralization solution (2.5 M KOH in 1.5 M K2HPO4) after 5 minute sonication. To remove precipitated potassium perchlorate neutralized samples were centrifuged at 4° C. and 16,400×g for 10 minutes and filtered with 0.2 μm filters. Nucleotides and sugar-nucleotides were immediately analyzed and separated via ion-pair reverse phased chromatography using an Acquity HSS T3 column (150 mm×2.1 mm, 1.7 μm, Waters) connected to an Acquity H-class UPLC system. The column temperature was set to 40° C. and the column was equilibrated with solvent A (50 mM potassium phosphate buffer, 8 mM tetrabutylammonium hydrogensulfate, pH 6.5) at a flow rate of 0.45 ml min^−1. Autosampler temperature was maintained at 6° C. […] Nucleotides were detected by Acquity PDA detector (Waters, 260 nm) and quantified using ultrapure standards (Sigma). Data acquisition and processing was performed with the Empower3 software suite (Waters).
Nucleotide sugars were measured with serum starvation during 18 hours of culturing and without of serum starvation and applying normal media.

PGM1-CDG fibroblasts = experiment: Galactose supplementation of PGM1-CDG fibroblasts, tracer based metabolomics; format: cell-based, human
Procedure: To probe the biochemical basis to galactose treatment, a tracer based metabolomics was employed to simultaneously track the activity of multiple pathways. Control and PGM1-CDG fibroblasts were cultured with 13C tagged glucose, with and without galactose. The 13C tracer was then incorporated into connected pathways after which, the cells were harvested to enable detection of metabolites by the mass-spectrometry.

[2] = 2 mM galactose added to the culture medium for 5 days

O=C[C@H](O)[C@@H](O)[C@@H](O)[C@H](O)CO [D-gal, D-galactose]
ADP ([1]; WT, 1 d 2 mM Galactose): 483.78 pmol/mio cells | AMP ([1]; WT, 1 d 2 mM Galactose): 10.14 pmol/mio cells | ATP ([1]; WT, 1 d 2 mM Galactose): 2604.27 pmol/mio cells | CTP ([1]; WT, 1 d 2 mM Galactose): 291.83 pmol/mio cells | GDP ([1]; WT, 1 d 2 mM Galactose): 194.35 pmol/mio cells | GDP-Man ([1]; WT, 1 d 2 mM Galactose): 72.63 pmol/mio cells | GTP ([1]; WT, 1 d 2 mM Galactose): 491.50 pmol/mio cells | UDP ([1]; WT, 1 d 2 mM Galactose): 159.94 pmol/mio cells | UDP-Gal ([1]; WT, 1 d 2 mM Galactose): 400.64 pmol/mio cells | UDP-Glc ([1]; WT, 1 d 2 mM Galactose): 345.82 pmol/mio cells | UTP ([1]; WT, 1 d 2 mM Galactose): 1267.16 pmol/mio cells | cAMP ([1]; WT, 1 d 2 mM Galactose): 77.78 pmol/mio cells | ADP ([1]; WT, 1 d + 0.75 mM Galactose): 506.33 pmol/mio cells | AMP ([1]; WT, 1 d + 0.75 mM Galactose): 16.00 pmol/mio cells | ATP ([1]; WT, 1 d + 0.75 mM Galactose): 2677.06 pmol/mio cells | CTP ([1]; WT, 1 d + 0.75 mM Galactose): 288.74 pmol/mio cells | GDP ([1]; WT, 1 d + 0.75 mM Galactose): 215.25 pmol/mio cells | GDP-Man ([1]; WT, 1 d + 0.75 mM Galactose): 97.79 pmol/mio cells | GTP ([1]; WT, 1 d + 0.75 mM Galactose): 519.85 pmol/mio cells | UDP ([1]; WT, 1 d + 0.75 mM Galactose): 164.12 pmol/mio cells | UDP-Gal ([1]; WT, 1 d + 0.75 mM Galactose): 298.39 pmol/mio cells | UDP-Glc ([1]; WT, 1 d + 0.75 mM Galactose): 313.93 pmol/mio cells | UTP ([1]; WT, 1 d + 0.75 mM Galactose): 1283.20 pmol/mio cells | cAMP ([1]; WT, 1 d + 0.75 mM Galactose): 70.82 pmol/mio cells | ADP ([1]; WT, 4 d 2 mM Galactose): 800.89 pmol/mio cells | AMP ([1]; WT, 4 d 2 mM Galactose): 43.70 pmol/mio cells | ATP ([1]; WT, 4 d 2 mM Galactose): 4045.74 pmol/mio cells | CTP ([1]; WT, 4 d 2 mM Galactose): 267.44 pmol/mio cells | GDP ([1]; WT, 4 d 2 mM Galactose): 375.01 pmol/mio cells | GDP-Man ([1]; WT, 4 d 2 mM Galactose): 179.79 pmol/mio cells | GTP ([1]; WT, 4 d 2 mM Galactose): 706.71 pmol/mio cells | UDP ([1]; WT, 4 d 2 mM Galactose): 209.11 pmol/mio cells | UDP-Gal ([1]; WT, 4 d 2 mM Galactose): 227.46 pmol/mio cells | UDP-Glc ([1]; WT, 4 d 2 mM Galactose): 272.66 pmol/mio cells | UDP-GlcNAc ([1]; WT, 4 d 2 mM Galactose): 5.74 pmol/mio cells | UTP ([1]; WT, 4 d 2 mM Galactose): 1538.99 pmol/mio cells | cAMP ([1]; WT, 4 d 2 mM Galactose): 71.87 pmol/mio cells | ADP ([1]; WT, 4 d + 0.75 mM Galactose): 670.35 pmol/mio cells | AMP ([1]; WT, 4 d + 0.75 mM Galactose): 28.04 pmol/mio cells | ATP ([1]; WT, 4 d + 0.75 mM Galactose): 4021.73 pmol/mio cells | CTP ([1]; WT, 4 d + 0.75 mM Galactose): 254.91 pmol/mio cells | GDP ([1]; WT, 4 d + 0.75 mM Galactose): 307.92 pmol/mio cells | GDP-Man ([1]; WT, 4 d + 0.75 mM Galactose): 191.57 pmol/mio cells | GTP ([1]; WT, 4 d + 0.75 mM Galactose): 691.97 pmol/mio cells | UDP ([1]; WT, 4 d + 0.75 mM Galactose): 156.18 pmol/mio cells | UDP-Gal ([1]; WT, 4 d + 0.75 mM Galactose): 219.26 pmol/mio cells | UDP-Glc ([1]; WT, 4 d + 0.75 mM Galactose): 268.34 pmol/mio cells | UTP ([1]; WT, 4 d + 0.75 mM Galactose): 1495.61 pmol/mio cells | cAMP ([1]; WT, 4 d + 0.75 mM Galactose): 67.63 pmol/mio cells | UDP-Glc and UDP-Gal levels ([1]; control cells, increase on first day of D-gal): normalized at 4 days | Nucleotide sugar ratio UDP-Glc/UDP-Gal, mean ([1]; controls, both with or without D-gal): 1.2 | Cellular UDP-hexose pools (PGM1-CDG fibroblasts; [2]): significant increase | Cellular glycosylation (PGM1-CDG fibroblasts; [2]): improved cellular glycosylation | Levels of UDP-glucose and UDP-galactose (PGM1-CDG fibroblasts; culture media supplemented with galactose): restored depleted levels; also recorded: significantly increased | Glycosylation (PGM1-CDG fibroblasts; culture supplemented with galactose): restarted stalled glycosylation

From patent US20220241311A1, “METHODS AND MATERIALS FOR TREATING GLYCOSYLATION DISORDERS” (priority 2018, published 2022)
